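Interpolation was linear, between the two tested concentrations surrounding the appropriate level; five concentrations were tested over 48 hours in 96-well plates. GI50: concentration for 50% inhibition of growth.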 Activity calls are given as the source filed them. No stated cut-off is given here; in the data, active = GI50 up to about 1.1 µM and inactive = higher.
Experiments:
Test in all cases: DTP human tumour cell line panel, 48 h
TK-10 = system: TK-10
NCI-H23 = system: NCI-H23
NCI/ADR-RES = system: NCI/ADR-RES
SK-MEL-2 = system: SK-MEL-2
NCI-H226 = system: NCI-H226
HCT-15 = system: HCT-15
HL-60 = system: HL-60
A549 = system: A549
U-251 = system: U-251
CCRF-CEM = system: CCRF-CEM
HOP-62 = system: HOP-62
OVCAR-3 = system: OVCAR-3
SK-MEL-28 = system: SK-MEL-28
PC-3 = system: PC-3
MDA-MB-231 = system: MDA-MB-231
UO-31 = system: UO-31
K562 = system: K562
UACC-257 = system: UACC-257
LOX IMVI = system: LOX IMVI
SK-MEL-5 = system: SK-MEL-5

Structure (SMILES): O=C(Nc1sccc1S(=O)(=O)c1ccccc1)c1cccnc1
- GI50 (TK-10): > 83 µM (inactive)
- GI50 (NCI-H23): 27 µM (inactive)
- GI50 (NCI/ADR-RES): 3.96 µM (inactive)
- GI50 (SK-MEL-2): 6.71 µM (inactive)
- GI50 (NCI-H226): 13.7 µM (inactive)
- GI50 (HCT-15): 5.18 µM
- GI50 (HL-60): 0.614 µM (active)
- GI50 (A549): 11.5 µM (inactive)
- GI50 (U-251): 2.97 µM (inactive)
- GI50 (CCRF-CEM): 7.03 µM (inactive)
- GI50 (HOP-62): 21.9 µM (inactive)
- GI50 (OVCAR-3): 11.6 µM (inactive)
- GI50 (SK-MEL-28): 38.5 µM (inactive)
- GI50 (PC-3): 37.6 µM (inactive)
- GI50 (MDA-MB-231): > 69.5 µM (inactive)
- GI50 (UO-31): > 58.1 µM (inactive)
- GI50 (K562): 4.39 µM (inactive)
- GI50 (UACC-257): 37.5 µM (inactive)
- GI50 (LOX IMVI): 75.3 µM (inactive)
- GI50 (SK-MEL-5): 3.61 µM (inactive)

Structure (SMILES): CCOC(=O)c1c(C)n(-c2ccc(C)cc2)c2c1cc(O)c1[nH]c3c(c12)CCCC3
- GI50 (TK-10): 27.5 µM (inactive)
- GI50 (NCI-H23): 20.3 µM (inactive)
- GI50 (NCI/ADR-RES): 39.8 µM (inactive)
- GI50 (SK-MEL-2): 12.4 µM (inactive)
- GI50 (NCI-H226): 23.8 µM (inactive)
- GI50 (HCT-15): 24.3 µM
- GI50 (HL-60): 7.4 µM (inactive)
- GI50 (A549): 18.8 µM (inactive)
- GI50 (U-251): 14.8 µM (inactive)
- GI50 (CCRF-CEM): 1.38 µM (inactive)
- GI50 (HOP-62): 27.9 µM (inactive)
- GI50 (OVCAR-3): 12.9 µM (inactive)
- GI50 (SK-MEL-28): 16.3 µM (inactive)
- GI50 (PC-3): 12.9 µM (inactive)
- GI50 (MDA-MB-231): 20 µM (inactive)
- GI50 (UO-31): 13.9 µM (inactive)
- GI50 (K562): 17.7 µM (inactive)
- GI50 (UACC-257): 21.2 µM (inactive)
- GI50 (LOX IMVI): 14.4 µM (inactive)
- GI50 (SK-MEL-5): 11.9 µM (inactive)

Structure (SMILES): CCOC(=O)c1c(CN2CCOCC2)n(Cc2ccccc2)c2c1cc(O)c1nc(C)c(C)nc12
- GI50 (TK-10): 30.3 µM (inactive)
- GI50 (NCI-H23): 35.5 µM (inactive)
- GI50 (NCI/ADR-RES): 35.5 µM (inactive)
- GI50 (SK-MEL-2): 20 µM (inactive)
- GI50 (NCI-H226): 45.5 µM (inactive)
- GI50 (HCT-15): 57 µM
- GI50 (HL-60): > 100 µM (inactive)
- GI50 (A549): 49 µM (inactive)
- GI50 (U-251): 27.4 µM (inactive)
- GI50 (CCRF-CEM): > 100 µM (inactive)
- GI50 (HOP-62): 21.3 µM (inactive)
- GI50 (OVCAR-3): 52.7 µM (inactive)
- GI50 (SK-MEL-28): > 100 µM (inactive)
- GI50 (PC-3): 17.5 µM (inactive)
- GI50 (MDA-MB-231): 85.1 µM (inactive)
- GI50 (UO-31): 36.1 µM (inactive)
- GI50 (K562): 84.9 µM (inactive)
- GI50 (UACC-257): > 100 µM (inactive)
- GI50 (LOX IMVI): 46.6 µM (inactive)
- GI50 (SK-MEL-5): 22.6 µM (inactive)

Structure (SMILES): CCN(CC)c1ncnc2c1ncn2CCNC(CO)(CO)CO
- GI50 (TK-10): > 100 µM (inactive)
- GI50 (NCI-H23): > 100 µM (inactive)
- GI50 (NCI/ADR-RES): > 100 µM (inactive)
- GI50 (SK-MEL-2): > 100 µM (inactive)
- GI50 (NCI-H226): > 100 µM (inactive)
- GI50 (HCT-15): > 100 µM
- GI50 (HL-60): > 100 µM (inactive)
- GI50 (A549): > 100 µM (inactive)
- GI50 (U-251): > 100 µM (inactive)
- GI50 (CCRF-CEM): > 100 µM (inactive)
- GI50 (HOP-62): > 100 µM (inactive)
- GI50 (OVCAR-3): > 100 µM (inactive)
- GI50 (SK-MEL-28): > 100 µM (inactive)
- GI50 (PC-3): > 100 µM (inactive)
- GI50 (MDA-MB-231): > 100 µM (inactive)
- GI50 (UO-31): > 100 µM (inactive)
- GI50 (K562): > 100 µM (inactive)
- GI50 (UACC-257): > 100 µM (inactive)
- GI50 (LOX IMVI): > 100 µM (inactive)
- GI50 (SK-MEL-5): > 100 µM (inactive)

From ChEMBL document CHEMBL1201862, “PubChem BioAssay data set” (2004)
